Reference: ChEMBL document CHEMBL3085716, “Hytramycins V and I, anti-Mycobacterium tuberculosis hexapeptides from a Streptomyces hygroscopicus strain” (J Nat Prod, 2013)
Converted amounts (≈) assume the structure as drawn.

Key:
Format in all cases: functional
[1] = tested on: Mycobacterium tuberculosis; assay: Ratio of MIC for Mycobacterium tuberculosis harboring luxABCDE under hypoxic condition in presence of 10% fetal bovine serum to MIC for Mycobacterium tuberculosis harboring luxABCDE under hypoxic condition in absence of 10% fetal bovine serum by MABA assay
[2] = tested on: Mycobacterium tuberculosis; assay: Antimycobacterial activity against Mycobacterium tuberculosis harboring luxABCDE under hypoxic condition after 10 days by MABA assay in presence of 4% bovine serum albumin; details: 240 h
[3] = tested on: Mycobacterium tuberculosis; assay: Antimycobacterial activity against moxifloxacin-resistant Mycobacterium tuberculosis under normoxic condition after 7 days by MABA assay; details: 168 h
[4] = tested on: Mycobacterium tuberculosis; assay: Antimycobacterial activity against cycloserine-resistant Mycobacterium tuberculosis ATCC 35826 under normoxic condition after 7 days by MABA assay; details: ATCC 35826, 168 h
[5] = tested on: Mycobacterium tuberculosis; assay: Antimycobacterial activity against isoniazid-resistant Mycobacterium tuberculosis ATCC 35822 under normoxic condition after 7 days by MABA assay; details: ATCC 35822, 168 h
[6] = tested on: Mycobacterium tuberculosis; assay: Antimycobacterial activity against capreomycin-resistant Mycobacterium tuberculosis under normoxic condition after 7 days by MABA assay; details: 168 h
[7] = tested on: Mycobacterium tuberculosis; assay: Antimycobacterial activity against streptomycin-resistant Mycobacterium tuberculosis ATCC 35820 under normoxic condition after 7 days by MABA assay; details: ATCC 35820, 168 h
[8] = tested on: Mycobacterium tuberculosis; assay: Antimycobacterial activity against Mycobacterium tuberculosis harboring luxABCDE under hypoxic condition after 10 days by MABA assay in presence of 10% fetal bovine serum; details: 240 h
[9] = tested on: Mycobacterium tuberculosis; assay: Antimycobacterial activity against rifampin-resistant Mycobacterium tuberculosis ATCC 35838 under normoxic condition after 7 days by MABA assay; details: ATCC 35838, 168 h
[10] = tested on: Mycobacterium tuberculosis; assay: Antimycobacterial activity against Mycobacterium tuberculosis harboring luxABCDE under hypoxic condition after 10 days by MABA assay; details: for MIC90: Mycobacterium tuberculosis, 240 h
[11] = tested on: Mycobacterium tuberculosis; assay: Antimycobacterial activity against kanamycin-resistant Mycobacterium tuberculosis ATCC 35827 under normoxic condition after 7 days by MABA assay; details: ATCC 35827, 168 h
[12] = tested on: Mycobacterium tuberculosis; assay: Ratio of MIC for Mycobacterium tuberculosis harboring luxABCDE under hypoxic condition in presence of 4% bovine serum albumin to MIC for Mycobacterium tuberculosis harboring luxABCDE under hypoxic condition in absence of 4% bovine serum albumin by MABA assay

`CC(C)C[C@@H]1NC(=O)[C@H]2CCCNN2C(=O)[C@H](C)N(C)C(=O)[C@H]2CCCNN2C(=O)[C@@H]2CCCNN2C(=O)[C@@H](C(C)C)NC1=O` was tested, and the Ratio [1] was 10, the MIC90 [2] was 19.1 µg/mL and the MIC90 [3] was 9 µg/mL (≈ 14.2 µM). For the same molecule, the MIC90 [4] was 20.6 µg/mL (≈ 32.5 µM), the MIC90 [5] was 12.1 µg/mL (≈ 19.1 µM) and the MIC90 [6] was 12.1 µg/mL (≈ 19.1 µM). For the same molecule, the MIC90 [7] was 11.6 µg/mL (≈ 18.3 µM), the MIC90 [8] was 20.9 µg/mL and the MIC90 [9] was 9.6 µg/mL (≈ 15.1 µM). It also gave an MBC90 [10] of 19.5 µg/mL (≈ 30.8 µM), an MIC90 [10] of 2.4 µg/mL (≈ 3.79 µM) and an MIC90 [11] of 12.4 µg/mL (≈ 19.6 µM). It also gave a Ratio [12] of 10.

`NNC(=O)c1ccncc1` [ISONIAZID] was tested, and the MIC90 [2] was greater than 140 µg/mL, the MIC90 [3] was 0.1 µg/mL (≈ 0.729 µM) and the MIC90 [4] was 0.03 µg/mL (≈ 0.219 µM). The MIC90 [5] was greater than 1.1 µg/mL, the MIC90 [6] was 0.1 µg/mL (≈ 0.729 µM) and the MIC90 [7] was 0.03 µg/mL (≈ 0.219 µM). For the same molecule, the MIC90 [8] was greater than 140 µg/mL, the MIC90 [9] was 0.1 µg/mL (≈ 0.729 µM) and the MIC90 [10] was greater than 140 µg/mL. The MIC90 [11] was 0.1 µg/mL (≈ 0.729 µM).

Molecule `CC[C@H](C)[C@H]1NC(=O)[C@H](CC(C)C)NC(=O)[C@H]2CCCNN2C(=O)[C@H](C)N(C)C(=O)[C@H]2CCCNN2C(=O)[C@@H]2CCCNN2C1=O` has a Ratio [1] of 10, an MIC90 [2] of 10.8 µg/mL and an MIC90 [3] of 4 µg/mL (≈ 6.17 µM). The MIC90 [4] was 7.4 µg/mL (≈ 11.4 µM), the MIC90 [5] was 4.7 µg/mL (≈ 7.26 µM) and the MIC90 [6] was 4.8 µg/mL (≈ 7.41 µM). It also gave an MIC90 [7] of 4.7 µg/mL (≈ 7.26 µM), an MIC90 [8] of 9.9 µg/mL and an MIC90 [9] of 4.7 µg/mL (≈ 7.26 µM). It also gave an MBC90 [10] of 10.5 µg/mL (≈ 16.2 µM), an MIC90 [10] of 1.5 µg/mL (≈ 2.32 µM) and an MIC90 [11] of 4.9 µg/mL (≈ 7.56 µM). It also gave a Ratio [12] of 10.

`CN[C@@H]1[C@H](O[C@H]2[C@H](O[C@H]3[C@H](O)[C@@H](O)[C@H](N=C(N)N)[C@@H](O)[C@@H]3N=C(N)N)O[C@@H](C)[C@]2(O)C=O)O[C@@H](CO)[C@H](O)[C@H]1O` [STREPTOMYCIN] gave an MIC90 [2] of 0.4 µg/mL, an MIC90 [3] of 0.5 µg/mL (≈ 0.86 µM) and an MIC90 [4] of 0.4 µg/mL (≈ 0.688 µM). The MIC90 [5] was 0.1 µg/mL (≈ 0.172 µM), the MIC90 [6] was 1.1 µg/mL (≈ 1.89 µM) and the MIC90 [7] was greater than 9.3 µg/mL. The MIC90 [8] was 0.6 µg/mL, the MIC90 [9] was 0.1 µg/mL (≈ 0.172 µM) and the MIC90 [10] was 0.6 µg/mL (≈ 1.03 µM). For the same molecule, the MIC90 [11] was 1.1 µg/mL (≈ 1.89 µM).

`CO[C@H]1/C=C/O[C@@]2(C)Oc3c(C)c(O)c4c(O)c(c(/C=N/N5CCN(C)CC5)c(O)c4c3C2=O)NC(=O)/C(C)=C\C=C\[C@H](C)[C@H](O)[C@@H](C)[C@@H](O)[C@@H](C)[C@H](OC(C)=O)[C@@H]1C` [RIFAMPIN] was tested, and the MIC90 [2] was 0.2 µg/mL, the MIC90 [3] was 0.1 µg/mL (≈ 0.122 µM) and the MIC90 [4] was less than 0.01 µg/mL. For the same molecule, the MIC90 [5] was 0.01 µg/mL (≈ 0.0122 µM), the MIC90 [6] was 0.04 µg/mL (≈ 0.0486 µM) and the MIC90 [7] was less than 0.01 µg/mL. For the same molecule, the MIC90 [8] was 0.1 µg/mL, the MIC90 [9] was greater than 3.3 µg/mL and the MBC90 [10] was 0.5 µg/mL (≈ 0.608 µM). It also gave an MIC90 [10] of less than 0.1 µg/mL and an MIC90 [11] of less than 0.01 µg/mL.

Molecule `Cc1ncc([N+](=O)[O-])n1CCO` [METRONIDAZOLE] has an MIC90 [2] of 13.5 µg/mL, an MIC90 [3] greater than 87.6 µg/mL and an MIC90 [4] greater than 87.6 µg/mL. The MIC90 [5] was greater than 87.6 µg/mL, the MIC90 [6] was greater than 87.6 µg/mL and the MIC90 [7] was greater than 87.6 µg/mL. The MIC90 [8] was 5.3 µg/mL, the MIC90 [9] was greater than 87.6 µg/mL and the MIC90 [10] was greater than 87.6 µg/mL. The MIC90 [11] was greater than 87.6 µg/mL.
